In US20200138855A1, “NOVEL ANTINEOPLASTIC DRUG BASED ON SPECIFICITY OF CANCER-CELL METABOLISM” (priority 2017, published 2020):
Structures can show the parent of a compound that is named as a salt.

What was measured:
pancreatic cancer = settings: diabetic patients taking metformin versus those taking no metformin; cited from earlier work
[1] = system: colorectal cancer cells having a mutation in KRAS gene and BRAF gene; settings: contact with high-concentration vitamin C; cited from earlier work
[2] = system: recurrent pancreatic cancer (pancreatic body cancer) (Stage IVa); experiment: Example 2: case of recurrent pancreatic cancer (pancreatic body cancer); type: in vivo, human
Text: Patient with recurrent pancreatic cancer (pancreatic body cancer) (Stage IVa)
The patient also had diabetes.

human lung cancer cells = settings: pHi of human lung cancer cells rises from 7.0 to 7.4; cited from earlier work

Compound: CN(C)C(=N)NC(=N)N [metformin]
- reduction of risk of development of pancreatic cancer (pancreatic cancer): 62%

Compound: O=C1O[C@H]([C@@H](O)CO)C(O)=C1O [vitamin C, L-ascorbic acid]
- effect on the cells [1]: killed

Compound: Nc1ccn([C@@H]2O[C@H](CO)[C@@H](O)C2(F)F)c(=O)n1 [Gemzar, gemcitabine]
- level of tumor marker (CA19-9) ([2]; Gemzar 800 mg/m^2 every other week alone (Oct-Dec 2016), combination from mid February 2017 (NaHCO3 3 g/day, vitamin C 25 g/day once a week, metformin hydrochloride 250 mg/day)): significantly increased
- MRI inspection ([2]; middle of December 2016, Gemzar 800 mg/m^2 every other week alone): suspected to have peritoneal dissemination

Compound: COc1cccc2c1C(=O)c1c(O)c3c(c(O)c1C2=O)C[C@@](O)(C(=O)CO)C[C@@H]3O[C@H]1C[C@H](N)[C@H](O)[C@H](C)O1 [doxorubicin hydrochloride]
- increase of resistance to the anti-cancer agent (human lung cancer cells): 2,000 times
